What all share (assay): KINOMEscan (ScanMAX) kinase profiling
Holding throughout (assay type): binding

The target of test [1] is T1, panel of 468 kinases (Homo sapiens, UniProt P36888, K663Q).
T1 construct: purchased KINOMEscan (ScanMAX) service
T1 sequence (P36888 27-993 K663Q): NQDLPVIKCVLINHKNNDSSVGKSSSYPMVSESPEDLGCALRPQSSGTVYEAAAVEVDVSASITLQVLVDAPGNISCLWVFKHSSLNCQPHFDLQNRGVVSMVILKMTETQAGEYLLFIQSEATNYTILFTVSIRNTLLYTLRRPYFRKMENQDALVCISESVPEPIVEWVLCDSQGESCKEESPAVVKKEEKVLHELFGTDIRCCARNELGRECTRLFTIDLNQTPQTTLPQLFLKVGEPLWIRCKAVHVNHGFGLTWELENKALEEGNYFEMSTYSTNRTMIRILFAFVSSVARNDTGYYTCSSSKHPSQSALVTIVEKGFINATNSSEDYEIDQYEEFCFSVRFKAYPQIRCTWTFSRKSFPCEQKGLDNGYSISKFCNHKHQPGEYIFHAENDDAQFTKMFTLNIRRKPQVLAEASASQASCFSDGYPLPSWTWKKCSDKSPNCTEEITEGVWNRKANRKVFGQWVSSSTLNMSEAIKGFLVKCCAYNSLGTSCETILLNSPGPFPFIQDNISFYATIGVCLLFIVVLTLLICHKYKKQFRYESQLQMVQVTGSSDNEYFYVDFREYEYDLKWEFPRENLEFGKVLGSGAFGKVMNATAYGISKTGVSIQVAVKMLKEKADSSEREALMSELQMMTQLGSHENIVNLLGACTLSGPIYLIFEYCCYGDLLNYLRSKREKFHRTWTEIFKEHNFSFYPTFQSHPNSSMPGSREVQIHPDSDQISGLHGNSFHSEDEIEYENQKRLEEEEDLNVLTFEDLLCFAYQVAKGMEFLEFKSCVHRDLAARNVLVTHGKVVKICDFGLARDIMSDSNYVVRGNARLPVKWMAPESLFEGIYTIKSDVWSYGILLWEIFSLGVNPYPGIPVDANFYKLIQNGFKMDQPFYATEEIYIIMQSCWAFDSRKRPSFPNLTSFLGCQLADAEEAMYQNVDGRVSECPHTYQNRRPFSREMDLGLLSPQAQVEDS
The conditions noted are these: FLT3(K663Q); 1 μM; read-out: % control.

For test [2], the target named is T2, panel of 468 kinases (Homo sapiens, UniProt Q05655).
T2 construct: purchased KINOMEscan (ScanMAX) service
T2 sequence (Q05655 whole entry): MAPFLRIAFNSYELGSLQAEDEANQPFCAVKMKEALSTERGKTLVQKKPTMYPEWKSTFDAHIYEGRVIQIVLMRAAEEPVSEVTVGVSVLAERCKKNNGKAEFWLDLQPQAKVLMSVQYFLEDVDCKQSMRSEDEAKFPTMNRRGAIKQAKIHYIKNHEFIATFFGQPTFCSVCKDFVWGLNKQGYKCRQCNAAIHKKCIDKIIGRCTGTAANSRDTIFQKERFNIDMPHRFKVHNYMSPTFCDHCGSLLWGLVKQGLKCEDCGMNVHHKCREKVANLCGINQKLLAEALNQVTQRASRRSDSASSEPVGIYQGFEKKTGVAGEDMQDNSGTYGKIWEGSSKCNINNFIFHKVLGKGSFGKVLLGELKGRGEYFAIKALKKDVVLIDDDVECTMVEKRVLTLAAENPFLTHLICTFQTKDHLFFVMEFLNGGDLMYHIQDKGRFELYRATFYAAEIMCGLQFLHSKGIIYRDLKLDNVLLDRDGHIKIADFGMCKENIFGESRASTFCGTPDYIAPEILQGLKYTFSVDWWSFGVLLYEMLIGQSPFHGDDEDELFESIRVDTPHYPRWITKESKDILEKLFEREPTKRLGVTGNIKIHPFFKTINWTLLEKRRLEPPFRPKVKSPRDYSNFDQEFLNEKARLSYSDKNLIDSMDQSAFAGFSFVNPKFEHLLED
Conditions: PRKCD; 1 μM; read-out: % control.

The target of test [3] is T3, panel of 468 kinases (Homo sapiens, UniProt P25098).
T3 construct: purchased KINOMEscan (ScanMAX) service
T3 sequence (P25098 1-689): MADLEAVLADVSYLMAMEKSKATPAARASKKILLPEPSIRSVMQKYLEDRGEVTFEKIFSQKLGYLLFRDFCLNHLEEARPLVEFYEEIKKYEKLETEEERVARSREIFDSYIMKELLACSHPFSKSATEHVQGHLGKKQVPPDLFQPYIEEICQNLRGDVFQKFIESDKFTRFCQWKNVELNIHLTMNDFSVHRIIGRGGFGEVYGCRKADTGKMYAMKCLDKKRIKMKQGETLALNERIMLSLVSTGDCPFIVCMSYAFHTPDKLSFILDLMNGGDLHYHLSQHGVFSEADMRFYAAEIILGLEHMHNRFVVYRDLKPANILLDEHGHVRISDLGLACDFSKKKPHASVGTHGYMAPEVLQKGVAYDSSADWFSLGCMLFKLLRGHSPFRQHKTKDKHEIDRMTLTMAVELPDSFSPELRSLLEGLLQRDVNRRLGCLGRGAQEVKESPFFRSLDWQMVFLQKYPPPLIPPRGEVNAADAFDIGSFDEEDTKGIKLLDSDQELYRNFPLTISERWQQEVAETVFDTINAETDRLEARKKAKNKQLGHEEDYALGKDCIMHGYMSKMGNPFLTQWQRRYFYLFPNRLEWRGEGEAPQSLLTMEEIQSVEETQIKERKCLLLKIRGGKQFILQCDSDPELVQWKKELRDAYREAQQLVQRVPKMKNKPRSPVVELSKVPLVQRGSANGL
The conditions noted are these: GRK2; 1 μM; read-out: % control.

Consider `CNc1nc(Nc2ccc(S(=O)(=O)N3CCC(N4CCOCC4)CC3)cc2OC)nc2[nH]cc(Cl)c12` [Compound 12, 5-chloro-N2-(2-methoxy-4-((4-morpholinopiperidin-1-yl)sulfonyl)phenyl)-N4-methyl-7H-pyrrolo[2,3-d]pyrimidine-2,4-diamine], for which the remaining binding at 1 µM on panel of 468 kinases [1] was 100%; at panel of 468 kinases [2] it was 94%; on panel of 468 kinases [3], 100%.

On to `CNc1nc(Nc2ccc(C(=O)N3CCC(N4CCOCC4)CC3)c3c2OCO3)nc2[nH]cc(Cl)c12` [Compound 75, (7-((5-chloro-4-(methylamino)-7H-pyrrolo[2,3-d]pyrimidin-2-yl)amino)benzo[d][1,3]dioxol-4-yl)(4-morpholinopiperidin-1-yl)methanone], for which the remaining binding at 1 µM on panel of 468 kinases [1] was 72%; at panel of 468 kinases [2] it was 89%; on panel of 468 kinases [3] it was 100%.

Consider `CNc1nc(Nc2ccc(P3(=O)CCN(C4CCOCC4)CC3)cc2OC)nc2[nH]cc(Cl)c12` [Compound 77, 4-(4-((5-chloro-4-(methylamino)-7H-pyrrolo[2,3-d]pyrimidin-2-yl)amino)-3-methoxyphenyl)-1-(tetrahydro-2H-pyran-4-yl)-1,4-azaphosphinane 4-oxide], for which the remaining binding at 1 µM at panel of 468 kinases [1] is 99%; at panel of 468 kinases [2] it was 95%; at panel of 468 kinases [3], 98%.

Source of the values: US12479847B2 (DANA-FARBER CANCER INSTITUTE, INC., priority 2019, dated 2025).
